# Experimental data reported in PubChem BioAssay AID467 (The Scripps Research Institute Molecular Screening Center, 2006).
# Activity calls are given as the source filed them. How the calls were made is not given here.
# Test system: parental cell line counter screen, S1P1 agonist assay readout
# Assay: signal in parental cells, counter-screen for S1P1 agonist project (AID 467);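 further: agonist potency measured against forskolin stimulation plus an EC20 level of SEW2871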
row,SMILES,EC50
1,CCC(C)OC(=O)c1[nH]c2c(c1C)C(=O)CC(c1ccc(N(C)C)cc1)C2 (stereo not given),> 30 µM (inactive)
2,Cc1noc(C)c1S(=O)(=O)N(CC(=O)Nc1ccc2c(c1)OCCO2)c1ccc(C(C)C)cc1,> 95.1 µM (inactive)
3,Cc1ccccc1-c1noc(-c2ccc(O)cc2)n1,25 µM (inactive)
4,COc1ccc(Cc2nc(-c3ccc(-n4cccc4)cc3)no2)cc1OC,> 95.1 µM (inactive)
5,Clc1ccc(OCc2nc(-c3ccncc3)no2)c(Br)c1,> 30 µM (inactive)
6,Cc1noc(C)c1S(=O)(=O)N(CC(=O)Nc1ccc2c(c1)OCO2)c1ccc(C(C)C)cc1,> 95.1 µM (inactive)
7,CCN(CC)c1ccc2cc(NC(=O)CCC(=O)O)c(=O)oc2c1,6.1 µM
8,Cn1cccc1C(=O)OCc1cc(Cl)cc2c1OCOC2,> 30 µM (inactive)
9,CCCOc1ccc(-c2nnc(-c3ccncc3)o2)cc1,> 95.1 µM (inactive)
10,COc1ccc(N2CCn3c2nc2c3c(=O)n(CCCc3ccccc3)c(=O)n2C)c(OC)c1,> 10 µM (inactive)
11,O=S(=O)(Nc1ccc2c(c1)OCCO2)c1ccc2oc3ccccc3c2c1,16.4 µM (inactive)
12,CC(C)COC(=O)NCCOC(=O)Nc1cccc(Cl)c1,27.7 µM (inactive)
13,Cc1cc(N2CCN(C/C=C/c3ccccc3)CC2)n2ncnc2n1,> 95.1 µM (inactive)
14,O=C(Nc1nc(-c2ccc3c(c2)OCO3)cs1)c1ccncc1,28.9 µM (inactive)
15,Cc1nc(C)c(C(=O)Nc2ccc(Oc3ccccc3)cc2)o1,> 30 µM (inactive)
16,c1ccc(C(Cc2nc(-c3cccnc3)no2)c2ccccc2)cc1,> 95.1 µM (inactive)
17,O=S1(=O)Nc2c(ccc3cccnc23)-c2ccccc21,> 95.1 µM (inactive)
18,CCN=c1scc(-c2ccc3c(c2)NC(=O)CO3)n1N=C1CCCC1,> 30 µM (inactive)
19,COc1ccc(S(=O)(=O)N2CCN(c3ccc(C)cc3C)CC2)cc1OC,28.4 µM (inactive)
20,CCOc1ccc(C2CC(c3cccc(OC)c3OC)n3nnnc3N2)cc1Cl (stereo not given),> 95.1 µM (inactive)
21,Oc1ccc(-c2nnc(-c3ccc(O)cc3)nn2)cc1,> 95.1 µM (inactive)
22,Cc1n[nH]c(C)c1N1C(=O)c2cccc3c(N4CCCCCC4)ccc(c23)C1=O,37 µM (inactive)
23,CCOc1cc(C2NCc3ccccc3-n3cccc32)ccc1O (stereo not given),> 95.1 µM (inactive)
24,COc1ccc(-c2nc(-c3ccccc3OC)no2)cc1OC,> 95.1 µM (inactive)
25,Cc1ccc(C(=O)c2cncc(Br)c2)cc1,> 95.1 µM (inactive)

row,SMILES,EC50
1,CCOc1ccc(-c2noc(-c3cccnc3)n2)cc1OC,> 95.1 µM (inactive)
2,CCOc1ccccc1COC(=O)c1cccc(-n2cnnn2)c1,> 95.1 µM (inactive)
3,Clc1ccc(CSc2nnc(-c3ccncc3)o2)c(Cl)c1,> 95.1 µM (inactive)
4,CC(C)N1C(=O)CCC1C(=O)N1CCC(Cc2ccccc2)CC1 (stereo not given),> 95.1 µM (inactive)
5,Cc1ccc(-c2csc(N3CCC(NS(=O)(=O)c4ccc5c(c4)OCCO5)CC3)n2)cc1,5.75 µM
6,CCCCc1ccc(C2C(C#N)=C(N)SC(N)=C2C#N)s1,16.8 µM (inactive)
7,COc1ccc(/C=N/O)cc1COc1ccc(NC(C)=O)cc1,> 95.1 µM (inactive)
8,COc1ccc(-c2nc3cc(NC(=O)Cc4ccc(OC)c(OC)c4)ccc3o2)cc1,> 10 µM (inactive)
9,CCOc1ccc(Cc2nc(-c3nonc3N)no2)cc1OCC,> 95.1 µM (inactive)
10,Cc1nc2ccccc2c2oc(C(=O)NCC3COc4ccccc4O3)cc12 (stereo not given),20.2 µM (inactive)
11,COC(=O)CC1SC(=O)NC1=Nc1ccccc1 (stereo not given),> 95.1 µM (inactive)
12,Cc1ccccc1CS(=O)(=O)c1nnc([C@H](CC(C)C)NC(=O)OC(C)(C)C)o1,2.89 µM
13,COc1ccc2[nH]c(=O)c3c(c2c1)OC(C)(C)C=C3,6.75 µM
14,CCc1cc2c(N3CCN(c4ccccc4)CC3)ncnc2s1,16.3 µM (inactive)
15,Cc1nc2ccc3nc(NC(=O)C4COc5ccccc5O4)sc3c2s1 (stereo not given),> 95.1 µM (inactive)
16,O=C(Oc1cccc(C(=O)N2CCOCC2)c1)c1ccc(Br)cc1,> 95.1 µM (inactive)
17,CC(Oc1ccccc1Br)C(=O)N1CCc2ccccc21 (stereo not given),> 95.1 µM (inactive)
18,CCn1nc(-c2cccs2)nc2c(=O)n(C)c(=O)nc1-2,12.3 µM (inactive)
19,O=C(CSc1nnc(-c2ccc(Cl)cc2)n1Cc1ccco1)c1cccs1,> 30 µM (inactive)
20,COc1cccc2sc(Nc3nc(-c4ccccn4)cs3)nc12,8.08 µM
21,O=C(c1ccc(F)cc1)C(CN1CCOCC1)c1ccccc1 (stereo not given),11.4 µM (inactive)
22,CC(C)c1cc(C(F)(F)F)n2nc(C(=O)Nc3ccc4c(c3)OCO4)cc2n1,> 95.1 µM (inactive)
23,O=C(OC1CCCCC1)c1ccc(NC(=O)c2ccco2)cc1,> 30 µM (inactive)
24,CN(Cc1cccs1)c1ncnc2sccc12,> 30 µM (inactive)
25,CC(C)[C@H](NC(=O)OC(C)(C)C)c1nnc(SCC(=O)Nc2ccc(Br)cc2)o1,> 30 µM (inactive)

row,SMILES,EC50
1,COc1ccc(N=c2scc(-c3ccc(S(=O)(=O)N4CCOCC4)cc3)n2CCCO)cc1,> 30 µM (inactive)
2,O=c1[nH]nc(Sc2ncnc3sccc23)n1CCc1ccccc1,21.1 µM (inactive)
3,CCCCOc1ncnc2c1[nH]c1ccccc12,37.9 µM (inactive)
4,O=c1oc2cc(Br)ccc2n1CSC1=NCCS1,> 10 µM (inactive)
5,Cc1cccc(-c2nc(CSCC(=O)N3CCN(Cc4ccc5c(c4)OCO5)CC3)c(C)o2)c1,30.5 µM (inactive)
6,CC1(C)CC(=O)C(C=Nc2ccc3[nH]ncc3c2)=C(O)C1,> 30 µM (inactive)
7,O=C(Nc1ccc(Oc2ccccc2)cc1)c1cnc2n(c1=O)CCS2,> 95.1 µM (inactive)
8,O=C(Nc1ccccc1C(F)(F)F)c1cc(-c2ccc(O)cc2)on1,> 95.1 µM (inactive)
9,Cc1ccccc1-n1c(SCC(=O)c2cc(C)n(C)c2C)nnc1-c1ccncc1,> 95.1 µM (inactive)
10,COc1cc(-c2noc(C3CCCN(S(=O)(=O)c4cccc(Cl)c4)C3)n2)cc(OC)c1OC (stereo not given),> 95.1 µM (inactive)
11,CCC(=NC(C)c1ccccc1)c1c(O)n(C)c(=O)n(C)c1=O (stereo not given),> 30 µM (inactive)
12,COc1cc(C#CC#CCN2CCCCC2)ccc1O,63.9 µM (inactive)
13,Cc1ccc(C(=O)Nc2nc(COc3ccccc3)cs2)s1,28.9 µM (inactive)
14,CC(C)(C)OC(=O)N[C@@H](Cc1ccccc1)c1nnc(S(=O)(=O)Cc2ccccc2)o1,1.51 µM
15,CCN(CC)C(=O)Oc1ccc2c(=O)c(-c3ccccc3)coc2c1,> 95.1 µM (inactive)
16,Cc1nn(-c2nc3ccccc3s2)c(N)c1-c1ccccc1,> 95.1 µM (inactive)
17,Nc1c(C(=O)NC2CCCC2)sc2nc(-c3cccs3)ccc12,23.1 µM (inactive)
18,Cc1ccc2[nH]c3c(N4CCCCCC4)ncnc3c2c1,10.9 µM (inactive)
19,O=S(=O)(C/C(=C/CO)S(=O)(=O)c1ccccc1)c1ccccc1,2.21 µM
20,CN=C(NC#N)SCC(=O)c1ccc(Cl)cc1Cl,> 30 µM (inactive)
21,CCOc1nc(-c2ccccc2)ccc1-c1noc(-c2ccco2)n1,> 95.1 µM (inactive)
22,C=CCOC(=O)c1[nH]c2c(c1C)C(=O)CC(c1cc(OC)c(OC)c(OC)c1)C2 (stereo not given),> 95.1 µM (inactive)
23,Cn1c(C(=O)N2CCc3ccccc3C2)cc2oc3ccccc3c21,66.4 µM (inactive)
24,Cc1cc(NC(=O)c2oc3ccccc3c2C)ccc1-n1cnnn1,> 30 µM (inactive)
25,O=C(Nc1ccc(O)cc1)c1cc2n(n1)C(C(F)(F)F)CC(c1ccco1)N2 (stereo not given),> 95.1 µM (inactive)

row,SMILES,EC50
1,CCc1ccc2c(COC(=O)c3n[nH]c4ccccc34)cc(=O)oc2c1,> 95.1 µM (inactive)
2,O=C(CSc1nnc(Cc2csc(Nc3cccc(Cl)c3)n2)o1)N1CCc2ccccc21,> 95.1 µM (inactive)
3,CCN(CC)C(=O)C1CCN(S(=O)(=O)c2ccc3oc4ccccc4c3c2)CC1,> 95.1 µM (inactive)
4,O=C(CSc1nnc(-c2c[nH]c3ccccc23)o1)N1c2ccccc2CCc2ccccc21,> 95.1 µM (inactive)
5,CCc1ccc(-c2nc(-c3ccncc3)no2)cc1,> 95.1 µM (inactive)
6,OC(c1cccc(OCc2ccccc2)c1)c1nnc(-c2ccccc2)o1 (stereo not given),> 30 µM (inactive)
7,Clc1ccc(OCc2nnc(-c3ccccc3Br)o2)c(Cl)c1,> 95.1 µM (inactive)
8,COCCn1c(C)cc(C(=O)CSc2nc3ccccc3c(=O)[nH]2)c1C,> 95.1 µM (inactive)
9,CC(C)c1cc(C(=O)N2CCN(C(c3ccccc3)c3ccccc3)CC2)no1,> 95.1 µM (inactive)
10,Cc1oc(-c2ccccc2)nc1Cn1cccc1C1=NC(c2ccccc2)CO1 (stereo not given),> 95.1 µM (inactive)
11,CCOc1ccc(-c2nnc(-c3cccnc3)o2)cc1OCC,> 95.1 µM (inactive)
12,COc1cccc(-c2nc(-c3ccc(NC(=O)c4cccnc4)cc3)no2)c1,> 95.1 µM (inactive)
13,CC(=O)N1C=CN(C(C)=O)C(c2cn(C)c3ccccc23)C1c1cn(C)c2ccccc12 (stereo not given),> 30 µM (inactive)
14,c1ccc(CSc2nnc(-c3cccs3)o2)cc1,> 95.1 µM (inactive)
15,c1ccc2c(c1)oc1c(N3CCN(Cc4ccc5c(c4)OCO5)CC3)ncnc12,21.3 µM (inactive)
16,CC(=O)Nc1ccc(S(=O)(=O)N2CCN(c3cccc(C)c3C)CC2)cc1,36.5 µM (inactive)
17,CCCCOC(=O)c1[nH]c2c(c1C)C(=O)CC(c1cc(OC)c(OC)c(OC)c1)C2 (stereo not given),12.1 µM (inactive)
18,COc1ccccc1Oc1ccc2c(c1)C(=O)N(c1cccc(O)c1)C2=O,> 30 µM (inactive)
19,COc1cccc(N2CCN(c3ncnc4c3[nH]c3ccccc34)CC2C)c1 (stereo not given),4.8 µM
20,Cc1cccc(-c2nc(C#N)c(NC3CCCCC3)o2)c1,> 95.1 µM (inactive)
21,O=C(c1cc(-c2ccco2)on1)N1CCN(C(c2ccccc2)c2ccccc2)CC1,> 95.1 µM (inactive)
22,O=C(CSc1nc2ccccc2o1)Nc1ccc(N2CCOCC2)c(Cl)c1,19.6 µM (inactive)
23,COCCn1c(C)cc(C(=O)CSc2nnc(-c3cccnc3)n2-c2ccccc2F)c1C,> 95.1 µM (inactive)
24,Cc1ccc2nc(NC(=O)CSc3nc4c(c(=O)n3C)SC(C)C4)sc2c1 (stereo not given),> 95.1 µM (inactive)
25,Cc1cc(C(=O)CSc2nnc(-c3cccnc3)n2-c2ccccc2F)c(C)n1C,> 95.1 µM (inactive)
